One experiment relates to A. baumannii biofilm. In words: MBEC, MBEC Inoculation Tray by Innovotech (to 10^2 CFU/peg in 24 hours). The format is cell-based, Acinetobacter baumannii. To be noted: Table 4. An excerpt: To determine the MBEC of each polyamine compound, the MBEC Inoculation Tray by Innovotech, formerly known as the Calgary biofilm device, was used. Within this device, biofilms grow on the surface of polystyrene pegs, 96 of which are attached to a lid. These pegs are inserted into a flat bottom 96-well plate. In this instance, the MBEC of a molecule was defined as the concentration of compound (in μg/mL) required to reduce 10^5 or 10^6 CFU/peg (biofilm levels varied by isolate) to 10^2 CFU/peg in a 24-hour period.
Following the manufacturer's guidelines, biofilms were grown on the surface of each peg by first making a 0.5 McFarland of each isolate. The 0.5 McFarland was diluted 1:100 in CAMHB. Into each well of a flat bottom 96-well plate, 150 μL of broth were pipetted. The plate was shaken at 100 rpm for 24 hours (P. aeruginosa and A. baumannii) or 48 hours (MRSA). The pegs were then placed into a separate flat bottom 96-well plate for 10 seconds with 200 μL of phosphate buffered saline (PBS) in each well to remove nonadherent cells. The lid was then placed into a 96-well plate that contained varying concentrations of antimicrobial with 200 μL per well. The plate was incubated for 24 hours at 37° C. after which time 100 μL of broth were plated on TSA. TSA plates were incubated 24 hours at 37° C. and the number of CFU counted to calculate the CFU/peg. In this instance, the MBEC was defined as the concentration of antimicrobial required to reduce 10^5 or 10^6 CFU/peg to 10^2 CFU/peg in a 24 hour period.
To determine the MBEC, the MBEC Inoculation Tray by Innovotech, formerly known as the Calgary biofilm device, is used. Within this device, biofilms grow on the surface of polystyrene pegs, 96 of which are attached to a lid. These pegs are inserted into a flat bottom 96-well plate. In this instance, the MBEC of a molecule is defined as the concentration of compound required to reduce approximately 10^6 CFU/peg to approximately 10^2 CFU/peg in a 24-hour period.
Following the manufacturer's guidelines, biofilms are grown on the surface of each peg by first making a 0.5 McFarland of A. baumannii. The 0.5 McFarland is diluted 1:100 in CAMHB broth. Into each well of a flat bottom 96-well plate, 150 μL of broth is pipetted. The plate is shaken at 100 rpm for 24 hours. The pegs are placed into a separate flat bottom 96-well plate for 10 seconds with 200 μL of phosphate buffered saline (PBS) in each well to remove nonadherent cells. The lid is placed into a 96-well plate that contains varying concentrations of antimicrobial with 200 μL of broth per well. The plate is incubated for 24 hours at 37° C. after which time 100 μL of broth is plated on TSA. TSA plates is incubated 24 hours at 37° C. and the number of CFU counted to calculate the CFU/peg.
MBEC data were collected using the MBEC Inoculation Tray by Innovotech. The MBEC was defined in these preliminary results as the concentration of antimicrobial required to reduce 10^5 or 10^6 CFU/peg to 10^2 CFU/peg in a 24-hour period.

The next experiment has as its system A. baumannii. In words: MIC in CAMHB, 96-well plate (10^5 to 10^2 CFU/mL in 24 hours). The format is cell-based, Acinetobacter baumannii. On the procedure: (§1) To determine the MIC of polyamine compounds, the protocol described herein was used.
(§2) In brief, a 0.5 McFarland of each bacterial isolate was made. A 0.5 McFarland is a measure of turbidity in a liquid sample that contains approximately 1×10̂^8 CFU/mL. The 0.5 McFarland standard was diluted in cation adjusted Mueller Hinton Broth (CAMHB), and […], of broth were added to a well of a 96-well plate. In addition, 50 μL of CAMHB that contained a desired concentration of antimicrobial were also added to the well for a final volume of 100 and a final concentration of approximately 5×10^4 CFU/well (which equated to approximately 5×10^5 CFU/mL). Each well contained a desired amount of polyamine compound in order to experimentally determine the MIC. Each 96-well plate was incubated at 37° C. for 24 hours. The contents of each well were plated on tryptic soy agar (TSA). TSA plates were incubated for 37° C. for 24 hours after which the number of CFU were counted and used to calculate the CFU/mL that remained after exposure to varying concentrations of compound. This procedure was repeated n=8 times for each concentration of antimicrobial.
A 0.5 McFarland of A. baumannii is made. A 0.5 McFarland is a measure of turbidity in a liquid sample that contains approximately 7.5×10^7 CFU/mL. The 0.5 McFarland standard is diluted in CAMHB and 50 μL of broth is added to a well of a 96-well plate. In addition, 50 μL of CAMHB that contains a desired concentration of antimicrobial is added to the well for a final volume of 100 μL and a final concentration of approximately 5×10^4 CFU/well (which equates to approximately 5×10^5 CFU/mL). Each well contains a desired amount of CZ compound in order to experimentally determine the MIC. Each 96-well plate is incubated at 37° C. for 24 hours. The contents of each well is plated on tryptic soy agar (TSA). TSA plates is incubated at 37° C. for 24 hours after which the number of CFUs is counted and used to calculate the CFU/mL that remain after exposure to varying concentrations of compound. This procedure is repeated n=8 times for each concentration of antimicrobial. […]

For the next experiment, the system named is MRSA. Described as above. The format is cell-based, methicillin-resistant Staphylococcus aureus. The note with it: Staphylococcus aureus, MRSA. On the procedure:
as §1
as §2, with “antimicrobial. […]” for “antimicrobial.”

Setting [1] is: Acinetobacter baumannii, Table 3A.
Where [2] appears, read: Acinetobacter baumannii, Table 4.

In general, MIC refers to the lowest concentration that inhibits growth of the organism. Read a high MIC as a less susceptible organism.

Values joined by “and” are separate entries in the source; they are usually repeats but may differ in a detail not shown here. Equal entries are not always repeated. Some results are limits rather than exact numbers.

As for “Polymyxin B sulfate [reference compound]”, in the experiment on A. baumannii biofilm, the “MBEC, A. baumannii” value is 50 μg/mL and 36 μM. Also, the “MIC, A. baumannii” value against A. baumannii (Table 3A) is 2 µg/mL. Moreover, in the experiment on A. baumannii (Table 4), the MIC is 0.7 µM and the “MIC, A. baumannii” value amounted to 1 µg/mL.

Turning to `NCCCNCCCNCc1cccc(CNCCCNCCCN)c1` [CZ-25], the “MBEC, A. baumannii” value in the experiment with A. baumannii biofilm was 450 μg/mL and 1234 μM. Besides, the MIC is 150 µg/mL in the experiment on A. baumannii (setting [1]); 150 µg/mL and 411 µM with A. baumannii (setting [2]); 40 µg/mL in the experiment with MRSA (Table 3A, first MRSA column); 40 µg/mL and 110 µM against MRSA (Table 4).

Take `NCCCNCCCNCc1cc(CNCCCNCCCN)cc(CNCCCNCCCN)c1` [CZ-52]: in the experiment on A. baumannii biofilm, the “MBEC, A. baumannii” value is > 500 μg/mL and 995 μM. Also, the MIC was around 25 µg/mL against A. baumannii (setting [1]); 400 µg/mL and 800 µM with A. baumannii (setting [2]); 3 µg/mL in the experiment on MRSA (Table 3A, first MRSA column); 3 µg/mL and 6 µM in the experiment with MRSA (Table 4).

On to `NCCCNCCCNCc1cc(CNCCCNCCCN)cc(-c2ccccc2)c1` [CZ-58], for which the “MBEC, A. baumannii” value with A. baumannii biofilm was > 50 μg/mL and > 113 μM. The MIC in the experiment on A. baumannii (setting [2]) was 30 µg/mL and 68 µM; with MRSA (Table 4), 6 µg/mL and 13.6 µM; against MRSA (Table 5, class symbols), below 50 µM.

For the origin of these results see patent publication US20150274639A1, “METHODS OF USE FOR COMPOSITIONS COMPRISING A BIOCIDAL POLYAMINE” (Curza Global, LLC, priority 2013, published 2015).
